Experimental data reported in patent US12528786B2, “Plasma kallikrein inhibitors” (Merck Sharp & Dohme LLC, priority 2020, dated 2026).
pIC50: −log10 of the molar value.

Target: T1, Human plasma kallikrein (Homo sapiens, UniProt P03952)
T1 construct: yields a heavy chain (371 amino acids) and a light chain (248 amino acids); purchased Enzyme Research Laboratories
Test: Kallikrein Assay (fluorogenic substrate hydrolysis, AFC release)
Assay type: biochemical
Details: purified Human plasma kallikrein 0.5 nM; substrate Acetyl-K—P—R-AFC 100 mM; 50 mM HEPES pH 7.4
Method in brief: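 Purified human plasma kallikrein (0.5 nM final) with Acetyl-K-P-R-AFC substrate (final ≤0.2 Km) in 50 mM HEPES pH 7.4, 150 mM NaCl, 5 mM CaCl2, 0.1% PEG 8000, after enzyme–inhibitor equilibration; room temperature or 37° C. AFC fluorescence (405 Ex/510 Em nm) under linear conditions; IC50 by four-parameter fit, Ki via Cheng-Prusoff.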

T1 sequence (P03952 391-638 limits assumed): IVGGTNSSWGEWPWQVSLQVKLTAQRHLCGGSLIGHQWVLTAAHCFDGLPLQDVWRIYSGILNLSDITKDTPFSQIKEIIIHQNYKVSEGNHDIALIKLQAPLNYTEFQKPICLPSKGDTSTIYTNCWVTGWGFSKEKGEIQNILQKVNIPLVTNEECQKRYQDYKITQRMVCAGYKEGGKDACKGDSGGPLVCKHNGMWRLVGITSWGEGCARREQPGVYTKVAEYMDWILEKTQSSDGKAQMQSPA
T1 sequence (P03952 20-390 partner limits assumed): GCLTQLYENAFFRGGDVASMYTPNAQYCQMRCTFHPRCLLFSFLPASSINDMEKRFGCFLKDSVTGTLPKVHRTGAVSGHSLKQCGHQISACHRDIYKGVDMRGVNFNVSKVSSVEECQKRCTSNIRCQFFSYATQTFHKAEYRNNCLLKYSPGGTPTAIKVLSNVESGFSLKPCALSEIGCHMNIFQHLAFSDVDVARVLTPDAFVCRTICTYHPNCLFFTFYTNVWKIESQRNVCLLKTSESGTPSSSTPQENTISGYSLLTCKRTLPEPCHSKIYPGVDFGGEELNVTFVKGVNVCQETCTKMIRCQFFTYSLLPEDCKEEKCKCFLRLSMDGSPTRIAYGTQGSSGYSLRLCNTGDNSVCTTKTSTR

Row | Compound | pIC50
1 | CC(c1cnc(N2C[C@H]3C[C@H]3C2=O)c(N)c1)n1cc(C(=O)N[C@H]2C[C@@H](c3cc(Cl)ccc3C#N)C2)nn1 (single isomer, unassigned) [Example 107, 1-((R or S)-1-(5-amino-6-((1R,5S)-2-oxo-3-azabicyclo[3.1.0]hexan-3-yl)pyridin-3-yl)ethyl)-N-((cis)-3-(5-chloro-2-cyanophenyl)cyclobutyl)-1H-1,2,3-triazole-4-carboxamide] | 8.32
2 | CC(c1cnc(N2C[C@H]3C[C@H]3C2=O)c(N)c1)n1cc(C(=O)N[C@H]2C[C@@H](c3cc(Cl)ccc3C#N)C2)nn1 (single isomer, unassigned) [Example 108, 1-((S or R)-1-(5-amino-6-((1R,5S)-2-oxo-3-azabicyclo[3.1.0]hexan-3-yl)pyridin-3-yl)ethyl)-N-((cis)-3-(5-chloro-2-cyanophenyl)cyclobutyl)-1H-1,2,3-triazole-4-carboxamide] | 8.19
3 | Cc1nc(C(C)n2cc(C(=O)N[C@H]3C[C@@](C)(c4cc(Cl)ccc4C#N)C3)nn2)cnc1N1C[C@H]2C[C@H]2C1=O (single isomer, unassigned) [Example 109, N-((cis)-3-(5-chloro-2-cyanophenyl)-3-methylcyclobutyl)-1-((R or S)-1-(6-methyl-5-((1R,5S)-2-oxo-3-azabicyclo[3.1.0]hexan-3-yl)pyrazin-2-yl)ethyl)-1H-1,2,3-triazole-4-carboxamide] | 9.70
4 | Cc1nc(C(C)n2cc(C(=O)N[C@H]3C[C@@](C)(c4cc(Cl)ccc4C#N)C3)nn2)cnc1N1C[C@H]2C[C@H]2C1=O (single isomer, unassigned) [Example 110, N-((cis)-3-(5-chloro-2-cyanophenyl)-3-methylcyclobutyl)-1-((S or R)-1-(6-methyl-5-((1R,5S)-2-oxo-3-azabicyclo[3.1.0]hexan-3-yl)pyrazin-2-yl)ethyl)-1H-1,2,3-triazole-4-carboxamide] | 8.96
5 | Cc1ccc(C#N)c([C@H]2C[C@@H](NC(=O)c3cn(C(C)c4cnc(N5C[C@H]6C[C@H]6C5=O)c(C)c4C)nn3)C2)c1 (single isomer, unassigned) [Example 113, N-((cis)-3-(2-cyano-5-methylphenyl)cyclobutyl)-1-((R or S)-1-(4,5-dimethyl-6-((1R,5S)-2-oxo-3-azabicyclo[3.1.0]hexan-3-yl)pyridin-3-yl)ethyl)-1H-1,2,3-triazole-4-carboxamide] | 9.40
6 | Cc1ccc(C#N)c([C@H]2C[C@@H](NC(=O)c3cn(C(C)c4cnc(N5C[C@H]6C[C@H]6C5=O)c(C)n4)nn3)C2)n1 (single isomer, unassigned) [Example 115, N-((cis)-3-(3-cyano-6-methylpyridin-2-yl)cyclobutyl)-1-((R or S)-1-(6-methyl-5-((1R,5S)-2-oxo-3-azabicyclo[3.1.0]hexan-3-yl)pyrazin-2-yl)ethyl)-1H-1,2,3-triazole-4-carboxamide] | 7.65
7 | Cc1ccc(C#N)c([C@H]2C[C@@H](NC(=O)c3cn(C(C)c4cnc(N5C[C@H]6C[C@H]6C5=O)c(C)n4)nn3)C2)n1 (single isomer, unassigned) [Example 116, N-((cis)-3-(3-cyano-6-methylpyridin-2-yl)cyclobutyl)-1-((S or R)-1-(6-methyl-5-((1R,5S)-2-oxo-3-azabicyclo[3.1.0]hexan-3-yl)pyrazin-2-yl)ethyl)-1H-1,2,3-triazole-4-carboxamide] | 8.16
8 | Cc1cc(N2C[C@H]3C[C@H]3C2=O)nnc1C(C)n1cc(C(=O)N[C@H]2C[C@@H](c3cc(Cl)ccc3C#N)C2)nn1 (single isomer, unassigned) [Example 117, N-((cis)-3-(5-chloro-2-cyanophenyl)cyclobutyl)-1-((R or S)-1-(4-methyl-6-((1R,5S)-2-oxo-3-azabicyclo[3.1.0]hexan-3-yl)pyridazin-3-yl)ethyl)-1H-1,2,3-triazole-4-carboxamide] | 6.01
9 | Cc1cc(N2C[C@H]3C[C@H]3C2=O)nnc1C(C)n1cc(C(=O)N[C@H]2C[C@@H](c3cc(Cl)ccc3C#N)C2)nn1 (single isomer, unassigned) [Example 118, N-((cis)-3-(5-chloro-2-cyanophenyl)cyclobutyl)-1-((S or R)-1-(4-methyl-6-((1R,5S)-2-oxo-3-azabicyclo[3.1.0]hexan-3-yl)pyridazin-3-yl)ethyl)-1H-1,2,3-triazole-4-carboxamide] | 8.33
10 | Cc1c(C(C)n2cc(C(=O)NC3CC(c4cccc(Cl)c4)C3O)nn2)cnc(N2C[C@H]3C[C@H]3C2=O)c1F (single isomer, unassigned) [Example 123, N-((1R,2R,3R or 1S,2S,3S)-3-(3-chlorophenyl)-2-hydroxycyclobutyl)-1-((R or S)-1-(5-fluoro-4-methyl-6-((1R,5S)-2-oxo-3-azabicyclo[3.1.0]hexan-3-yl)pyridin-3-yl)ethyl)-1H-1,2,3-triazole-4-carboxamide] | 7.38
11 | Cc1c(C(C)n2cc(C(=O)NC3CC(c4cccc(Cl)c4)C3O)nn2)cnc(N2C[C@H]3C[C@H]3C2=O)c1F (single isomer, unassigned) [Example 124, N-((1S,2S,3S or 1R,2R,3R)-3-(3-chlorophenyl)-2-hydroxycyclobutyl)-1-((R or S)-1-(5-fluoro-4-methyl-6-((1R,5S)-2-oxo-3-azabicyclo[3.1.0]hexan-3-yl)pyridin-3-yl)ethyl)-1H-1,2,3-triazole-4-carboxamide] | 8.35
12 | Cc1c(C(C)n2cc(C(=O)NC3CC(c4cccc(Cl)c4)C3O)nn2)cnc(N2C[C@H]3C[C@H]3C2=O)c1F (single isomer, unassigned) [Example 125, N-((1R,2R,3R or 1S,2S,3S)-3-(3-chlorophenyl)-2-hydroxycyclobutyl)-1-((S or R)-1-(5-fluoro-4-methyl-6-((1R,5S)-2-oxo-3-azabicyclo[3.1.0]hexan-3-yl)pyridin-3-yl)ethyl)-1H-1,2,3-triazole-4-carboxamide] | 6.89
13 | Cc1c(C(C)n2cc(C(=O)NC3CC(c4cccc(Cl)c4)C3O)nn2)cnc(N2C[C@H]3C[C@H]3C2=O)c1F (single isomer, unassigned) [Example 126, N-((1S,2S,3S or 1R,2R,3R)-3-(3-chlorophenyl)-2-hydroxycyclobutyl)-1-((S or R)-1-(5-fluoro-4-methyl-6-((1R,5S)-2-oxo-3-azabicyclo[3.1.0]hexan-3-yl)pyridin-3-yl)ethyl)-1H-1,2,3-triazole-4-carboxamide] | 6.38

Other lines, results leading:

Row | pIC50 | Compound
14 | 9.52 | COc1c(N2C[C@H]3C[C@H]3C2=O)ncc(C(C)n2cc(C(=O)N[C@H]3C[C@@H](c4cc(Cl)ccc4C#N)C3)nn2)c1C (single isomer, unassigned) [Example 111, N-((cis)-3-(5-chloro-2-cyanophenyl)cyclobutyl)-1-((R or S)-1-(5-methoxy-4-methyl-6-((1R,5S)-2-oxo-3-azabicyclo[3.1.0]hexan-3-yl)pyridin-3-yl)ethyl)-1H-1,2,3-triazole-4-carboxamide]
15 | 8.17 | COc1c(N2C[C@H]3C[C@H]3C2=O)ncc(C(C)n2cc(C(=O)N[C@H]3C[C@@H](c4cc(Cl)ccc4C#N)C3)nn2)c1C (single isomer, unassigned) [Example 112, N-((cis)-3-(5-chloro-2-cyanophenyl)cyclobutyl)-1-((S or R)-1-(5-methoxy-4-methyl-6-((1R,5S)-2-oxo-3-azabicyclo[3.1.0]hexan-3-yl)pyridin-3-yl)ethyl)-1H-1,2,3-triazole-4-carboxamide]
16 | 8.21 | Cc1ccc(C#N)c([C@H]2C[C@@H](NC(=O)c3cn(C(C)c4cnc(N5C[C@H]6C[C@H]6C5=O)c(C)c4C)nn3)C2)c1 (single isomer, unassigned) [Example 114, N-((cis)-3-(2-cyano-5-methylphenyl)cyclobutyl)-1-((S or R)-1-(4,5-dimethyl-6-((1R,5S)-2-oxo-3-azabicyclo[3.1.0]hexan-3-yl)pyridin-3-yl)ethyl)-1H-1,2,3-triazole-4-carboxamide]
17 | 7.59 | Cc1ccc(C#N)c([C@H]2C[C@@H](NC(=O)c3cn(C(C)c4cnc(N5C[C@H]6C[C@H]6C5=O)c(F)c4C)nn3)C2)c1 (single isomer, unassigned) [Example 119, N-((cis)-3-(2-cyano-5-methylphenyl)cyclobutyl)-1-((R or S)-1-(5-fluoro-4-methyl-6-((1R,5S)-2-oxo-3-azabicyclo[3.1.0]hexan-3-yl)pyridin-3-yl)ethyl)-1H-1,2,3-triazole-4-carboxamide]
18 | 9.22 | Cc1ccc(C#N)c([C@H]2C[C@@H](NC(=O)c3cn(C(C)c4cnc(N5C[C@H]6C[C@H]6C5=O)c(F)c4C)nn3)C2)c1 (single isomer, unassigned) [Example 120, N-((cis)-3-(2-cyano-5-methylphenyl)cyclobutyl)-1-((S or R)-1-(5-fluoro-4-methyl-6-((1R,5S)-2-oxo-3-azabicyclo[3.1.0]hexan-3-yl)pyridin-3-yl)ethyl)-1H-1,2,3-triazole-4-carboxamide]
19 | 8.17 | COc1nc(C(C)n2cc(C(=O)N[C@H]3C[C@@H](c4cc(Cl)ccc4C#N)C3)nn2)cnc1N1C[C@H]2C[C@H]2C1=O (single isomer, unassigned) [Example 121, N-((cis)-3-(5-chloro-2-cyanophenyl)cyclobutyl)-1-((R or S)-1-(6-methoxy-5-((1R,5S)-2-oxo-3-azabicyclo[3.1.0]hexan-3-yl)pyrazin-2-yl)ethyl)-1H-1,2,3-triazole-4-carboxamide]
20 | 8.52 | COc1nc(C(C)n2cc(C(=O)N[C@H]3C[C@@H](c4cc(Cl)ccc4C#N)C3)nn2)cnc1N1C[C@H]2C[C@H]2C1=O (single isomer, unassigned) [Example 122, N-((cis)-3-(5-chloro-2-cyanophenyl)cyclobutyl)-1-((S or R)-1-(6-methoxy-5-((1R,5S)-2-oxo-3-azabicyclo[3.1.0]hexan-3-yl)pyrazin-2-yl)ethyl)-1H-1,2,3-triazole-4-carboxamide]
